Source: patent publication US8980887B2, “2-aryl imidazo[1,2-a]pyridine-3-acetamide derivatives, preparation methods and uses thereof” (Institute of Pharmacology, priority 2010, dated 2015)

Legend:
mice [1] = experiment: Blocking effects of TSPO antagonist PK11195 on Compound 8 antidepressant activity in mice tail suspension test; type: in vivo; conditions: 3 mg/kg, ip
Procedure: The optimum dose (0.1 mg/kg) of YL-IPA08 in antidepressant effect of mice in tail suspension model was used to perform drug antagonism test, and the method was identical to that of Example 43, except that PK11195 group and PK11195+Compound 8 antagonism group with single intraperitoneal injection (ip) were added, wherein the antagonism group was administered by intraperitoneal injection with PK11195 simultaneously when Compound 8 was intragastrially administered.
Statistic method: the results were expressed in mean±SEM. The result was determined by two-way analysis of variance, and Bonferroni test was used for group comparison.

mice [2] = experiment: Mice tail suspension test; type: in vivo
Source text: Experimental mechanism: mice tail suspension test was an acute behavioral despair model established by Steru et al (1985). […] This model was easy in operation, with good predictability, and was the most popular model for screening antidepressants. 1) Experimental device: an experimental frame with spacing boards which dividing the experimental frame into 2 experimental chambers (25×25×35 cm). A clamp is mounted on a through cross rod in the chamber. Male Kunming mice weighing 20-25 g. The mice were intragastrically administered with Compound 8, vehicle (distilled water, DW) or positive control drug (desipramine, DMI). After 1 h, wrap adhesive tape around the mouse's tail three quarters of the distance from the base of the tail and then suspend the animals by passing the suspension hook through the adhesive tape 5 cm above the table. The duration of immobility in the last 4 min of total 6 min test was recorded.

[3] = target: TSPO protein separated and purified from rat heart (Rattus norvegicus (Rat), UniProt P16257); experiment: TSPO and radioligand (3H-PK11195) competitive binding test; conditions: for Inhibition rate (%): n = 6 times; for IC50 / Ki: 9 gradient concentrations, plotting and fitting
Procedure: In the present test, TSPO protein separated and purified from rat heart was used as screening target, via competitive binding test with radioligand (^3H-PK11195), to screen TSPO ligand compounds.
Wister rats, 220-260 g, female and male, were sacrificed by decapitation and the rat heart were rapidly separated, weighed and to which homogenized in 10 times volume of Tris-HCl buffer solution (50 mM Tris-HCl, 5 mM MgCl2, 1 mM EDTA, 0.5% (W/V) BSA, 1 mM PMSF, 3 μg/ml proteinase inhibitor, 0.1% NaN3, 0.32M sucrose, pH 7.4) at 15,000 rpm for 30 s, total 5 times. The homogenate was centrifuged under 1000×g for 10 minutes and the supernatant was then centrifuged under 30000×g for 20 minutes. The precipitate was collected, and resuspended with 10 times volume of Tris-HCl buffer solution (pH 7.4) relative to the original weight, then centrifuged under 30000×g for 20 minutes. The precipitate was washed with the same buffer solution, centrifuged under 30000×g for 20 minutes and the precipitate was suspended with the above buffer solution. After sub-packaged (the whole operation procedures were performed under ice bath), the product was stored at −80° C.
3) Competitive Binding Test of Drug to the Receptor (Rat Heart TSPO) and Radioligand (^3H-PK11195):
(1) tubes were placed in reaction condition of 30° C.
(2) all tubes were added with 20 μg of receptor protein in order;
(3) the test tubes were added in order with 20 μL of drugs in certain concentrations;
(4) the non-specific binding tubes were added with 20 μL of non-tagged ligand (PK11195), the final concentration of the non-tagged ligand was 0.1 mM, pre-reacted for 30 min;
(5) all tubes were added in order with 25 μL ^3H-PK11195, the final concentration of the labeled ligand was 1.5 nM;
(6) Tris-HCl Buffer pH7.4 was used to complement the reaction volumes of all tubes to reach 200 μL;
(7) the reaction was performed under 30° C. reaction condition for 1 h;
(8) Then samples were applied to 49-type glass fibre filter, vacuum suction filtered, then washed with 2 ml ice-cold Tris-HCl buffer solution (50 mM Tris-HCl buffer solution, 1 mM EDTA, 5 mM MgCl2, 1 mM PMSF, 0.1% NaN3, 3 μg/ml proteinase inhibitor, pH 7.4). The filter was dried and placed in a scintillation vial with 1 ml of scintillation fluid. The radio-activity was measured by a scintillation counter.

mice [4] = experiment: Mice open field spontaneous locomotor activity test; type: in vivo; conditions: intragastric
Source text: Experimental mechanism: the aim was to observe the effects of drugs on central nervous excitation, so as to exclude false positive reactions of anxiolytic or antidepressant effects caused by central nervous excitation.
1) Experimental device: the mice open field box was a colorless transparent organic glass box (30×36×25 cm), which bottom surface was divided into 9 lattices.
2) Experimental operation: Compound 8(8^#, YL-IPA08), Compound 10(10^#, YL-IPA10), Compound 11(11^#, YL-IPA11) and Compound 13(13^#, YL-IPA13) (separately having three dose groups of 0.03, 0.3, 3 mg/kg) and blank control (distilled water, DW) were administered intragastrically, and the test started after 55 min. During test, the mice were placed in the central area of the open field spontaneous locomotor activity observation box, started timing immediately, the spontaneous activities of mice within 5 min were recorded artificially (observation indexes: number of rearings, number of crossings).

mice [5] = experiment: Mice elevated plus maze test; type: in vivo
[6] = doses 0.03, 0.3, 3 mg/kg, 55 min after dosing, 5 min observation

## CCC(C)N(C)C(=O)c1cc2ccccc2c(-c2ccccc2Cl)n1 (stereo not shown) [PK11195]
Mice [1]
  immobility time in mice tail suspension test, single administration versus control: no significant influence

## CCN(Cc1ccccn1)C(=O)Cc1c(-c2ccc(Cl)c(Cl)c2)nc2cc(C)ccn12.Cl [Compound 8, N-ethyl-N-(2-pyridinylmethyl)-2-(3,4-dichlorophenyl)-7-methylimidazo[1,2-a]pyridine-3-acetamide.hydrochloride]
Mice [2]; mice tail suspension model
  optimum dose in antidepressant effect: 0.1 mg/kg
[3]; 1 × 10^−5M
  Inhibition rate (%): 100%
[3]; 1 × 10^−7M
  Inhibition rate (%): 89%
[3]; 1 × 10^−9M
  Inhibition rate (%): 30%
Mice [4]; [6]
  number of rearings, number of crossings (open field spontaneous activity) versus control: equivalent to those of the control
other
  melting point: 217 to 220 °C

## CN1C(=O)CN=C(c2ccccc2)c2cc(Cl)ccc21 [diazepam, reference compound]
Mice [5]; mice elevated plus maze, ip
  minimum effective dose for generating anxiolytic-like effects: 2 mg/kg

## CCN(Cc1ccccc1)C(=O)Cc1c(-c2ccc(C)cc2)nc2cc(C)ccn12 [Compound 13, N-benzyl-N-ethyl-2-(4-methylphenyl)-7-methylimidazo[1,2-a]pyridine-3-acetamide]
Mice [5]; mice, dose 0.03, 0.3, 3 mg/kg
  all elevated plus maze indexes versus control: significantly lower than the control
[3]; 1 × 10^−5M
  Inhibition rate (%): 97%
[3]; 1 × 10^−7M
  Inhibition rate (%): 89%
[3]; 1 × 10^−9M
  Inhibition rate (%): 42%
[3]
  IC50: 6.99 nM
  Ki: 2.97 nM
Mice [4]; [6]
  number of rearings, number of crossings (open field spontaneous activity) versus control: apparently lower than the control
other
  melting point: 220 to 222 °C

## COCCN(Cc1cccnc1)C(=O)Cc1c(-c2ccc(C)cc2)nc2cc(C)ccn12.Cl [Compound 18, N-(2-methoxyethyl)-N-(3-pyridinylmethyl)-2-(4-methylphenyl)-7-methylimidazo[1,2-a]pyridine-3-acetamide.hydrochloride]
[3]; 1 × 10^−5M
  Inhibition rate (%): 69%
[3]; 1 × 10^−7M
  Inhibition rate (%): 32%
[3]; 1 × 10^−9M
  Inhibition rate (%): 0%
other
  melting point: 224 to 226 °C

## CNCCCN1c2ccccc2CCc2ccccc21 [desipramine, reference compound]
Mice [2]; mice tail suspension test
  minimum effective dose to generate antidepression activity: 30 mg/kg

## COCCN(Cc1ccccn1)C(=O)Cc1c(-c2ccc(Cl)cc2)nc2cc(C)ccn12.Cl [Compound 5, N-(2-methoxyethyl)-N-(2-pyridinylmethyl)-2-(4-chlorophenyl)-7-methylimidazo[1,2-a]pyridine-3-acetamide.hydrochloride]
[3]; 1 × 10^−5M
  Inhibition rate (%): 100%
[3]; 1 × 10^−7M
  Inhibition rate (%): 43%
[3]; 1 × 10^−9M
  Inhibition rate (%): 0%
other
  melting point: 238 to 239 °C

## COCCN(Cc1ccccn1)C(=O)Cc1c(-c2ccc(Cl)c(Cl)c2)nc2cc(C)ccn12.Cl [Compound 11, N-(2-methoxyethyl)-N-(2-pyridinylmethyl)-2-(3,4-dichlorophenyl)-7-methylimidazo[1,2-a]pyridine-3-acetamide.hydrochloride]
[3]; 1 × 10^−5M
  Inhibition rate (%): 100%
[3]; 1 × 10^−7M
  Inhibition rate (%): 65%
[3]; 1 × 10^−9M
  Inhibition rate (%): 29%
Mice [4]; dose 3 mg/kg
  number of rearings, number of crossings (open field spontaneous activity) versus control: equivalent to the control
Mice [4]; doses 0.03 and 0.3 mg/kg
  number of rearings, number of crossings (open field spontaneous activity) versus control: lower than the control
other
  melting point: 236 to 238 °C

## CCN(Cc1ccncc1)C(=O)Cc1c(-c2ccc(C)cc2)nc2cc(C)ccn12.Cl [Compound 16, N-ethyl-N-(4-pyridinylmethyl)-2-(4-methylphenyl)-7-methylimidazo[1,2-a]pyridine-3-acetamide.hydrochloride]
[3]; 1 × 10^−5M
  Inhibition rate (%): 72%
[3]; 1 × 10^−7M
  Inhibition rate (%): 41%
[3]; 1 × 10^−9M
  Inhibition rate (%): 0%
other
  melting point: 253 to 255 °C

## CCN(Cc1ccncc1)C(=O)Cc1c(-c2ccc(Cl)cc2)nc2ccc(C)cn12.Cl [Compound 28, N-ethyl-N-(4-pyridinylmethyl)-2-(4-chlorophenyl)-6-methylimidazo[1,2-a]pyridine-3-acetamide.hydrochloride]
[3]; 1 × 10^−5M
  Inhibition rate (%): 84%
[3]; 1 × 10^−7M
  Inhibition rate (%): 33%
[3]; 1 × 10^−9M
  Inhibition rate (%): 0%
other
  melting point: 229 to 231 °C

## CCN(Cc1ccncc1)C(=O)Cc1c(-c2ccc(Cl)c(Cl)c2)nc2cc(C)ccn12.Cl [Compound 10, N-ethyl-N-(4-pyridinylmethyl)-2-(3,4-dichlorophenyl)-7-methylimidazo[1,2-a]pyridine-3-acetamide.hydrochloride]
[3]; 1 × 10^−5M
  Inhibition rate (%): 100%
[3]; 1 × 10^−7M
  Inhibition rate (%): 85%
[3]; 1 × 10^−9M
  Inhibition rate (%): 23%
Mice [4]; [6]
  number of rearings, number of crossings (open field spontaneous activity) versus control: equivalent to those of the control
other
  melting point: 250 to 252 °C

## COCCN(Cc1cccnc1)C(=O)Cc1c(-c2ccc(OC)cc2)nc2cc(C)ccn12.Cl [Compound 24, N-(2-methoxyethyl)-N-(3-pyridinylmethyl)-2-(4-methoxyphenyl)-7-methylimidazo[1,2-a]pyridine-3-acetamide.hydrochloride]
[3]; 1 × 10^−5M
  Inhibition rate (%): 17%
[3]; 1 × 10^−7M
  Inhibition rate (%): 3%
[3]; 1 × 10^−9M
  Inhibition rate (%): 0%
other
  melting point: 243 to 245 °C

## CCN(Cc1ccncc1)C(=O)Cc1c(-c2ccc(C)cc2)nc2ccc(C)cn12.Cl [Compound 27, N-ethyl-N-(4-pyridinylmethyl)-2-(4-methylphenyl)-6-methylimidazo[1,2-a]pyridine-3-acetamide.hydrochloride]
[3]; 1 × 10^−5M
  Inhibition rate (%): 91%
[3]; 1 × 10^−7M
  Inhibition rate (%): 65%
[3]; 1 × 10^−9M
  Inhibition rate (%): 0%
other
  melting point: 222 to 224 °C

## CCN(Cc1ccccn1)C(=O)Cc1c(-c2ccc(C)cc2)nc2cc(C)ccn12.Cl [Compound 14, N-ethyl-N-(2-pyridinylmethyl)-2-(4-methylphenyl)-7-methylimidazo[1,2-a]pyridine-3-acetamide.hydrochloride]
[3]; 1 × 10^−5M
  Inhibition rate (%): 97%
[3]; 1 × 10^−7M
  Inhibition rate (%): 66%
[3]; 1 × 10^−9M
  Inhibition rate (%): 14%
[3]
  IC50: 91 nM
  Ki: 38.7 nM
other
  melting point: 218 to 220 °C
